Experiments:
Experiment in all cases: drug sensitivity score (DSS3, normalised partial AUC of % inhibition dose-response) (DSS (score)); higher = more sensitive (stronger inhibition of viability); extreme values may be limits of the assay
FMOC02_1 = patient-derived low-grade serous ovarian cancer cells; conditions: 72 h; library: FO5A; assay format: 2D, 384-well, CellTiter-Glo
Summary of the method: (§1)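 The drug sensitivity score is calculated as a partial area under the percent-inhibition dose-response curve, divided by the log of the upper asymptote; higher scores mean more sensitive. For this score, early-passage (under 10) patient-derived ovarian cancer cells were exposed on 384-well flat clear-bottom plates to compounds at five concentrations across a 10,000-fold range for 72 h at 37 °C, 5% CO2. Viability was read with CellTiter-Glo and processed in Breeze.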

FMOC02_2 = patient-derived low-grade serous ovarian cancer cells; conditions: 72 h; library: FO5A; assay format: 2D, 384-well, CellTiter-Glo
Summary of the method: as §1

FMOC02_3 = patient-derived low-grade serous ovarian cancer cells; conditions: 72 h; library: FO5A; assay format: 2D, 384-well, CellTiter-Glo
Summary of the method: as §1

FMOC03 = patient-derived mucinous ovarian cancer cells; conditions: 72 h; library: FO5A; assay format: 2D, 384-well, CellTiter-Glo
Summary of the method: as §1

FMOC04 = patient-derived high-grade serous ovarian cancer cells; conditions: 72 h; library: FO5A; assay format: 2D, 384-well, CellTiter-Glo
Summary of the method: as §1

FMOC06 = patient-derived mucinous ovarian cancer cells; conditions: 72 h; library: FO5A; assay format: 2D, 384-well, CellTiter-Glo
Summary of the method: as §1

FMOC09 = patient-derived high-grade serous ovarian cancer cells; conditions: 72 h; library: FO5A; assay format: 2D, 384-well, CellTiter-Glo
Summary of the method: as §1

FMOC11 = patient-derived high-grade serous ovarian cancer cells; conditions: 72 h; library: FO5A; assay format: 2D, 384-well, CellTiter-Glo
Summary of the method: as §1

FMOC14 = patient-derived high-grade serous ovarian cancer cells; conditions: 72 h; library: FO5A; assay format: 2D, 384-well, CellTiter-Glo
Summary of the method: as §1

FMOC17 = patient-derived low-grade serous ovarian cancer cells; conditions: 72 h; library: FO5A; assay format: 2D, 384-well, CellTiter-Glo
Summary of the method: as §1

FMOC22 = patient-derived mucinous ovarian cancer cells; conditions: 72 h; library: FO5A; assay format: 2D, 384-well, CellTiter-Glo
Summary of the method: as §1

FMOC24 = patient-derived high-grade serous ovarian cancer cells; conditions: 72 h; library: FO5A; assay format: 2D, 384-well, CellTiter-Glo
Summary of the method: as §1

FMOC25_1 = patient-derived low-grade serous ovarian cancer cells; conditions: 72 h; library: FO4B; assay format: 2D, 384-well, CellTiter-Glo
Summary of the method: as §1

FMOC25_2 = patient-derived low-grade serous ovarian cancer cells; conditions: 72 h; library: FO5A; assay format: 2D, 384-well, CellTiter-Glo
Summary of the method: as §1

FMOC27 = patient-derived low-grade serous ovarian cancer cells; conditions: 72 h; library: FO5A; assay format: 2D, 384-well, CellTiter-Glo
Summary of the method: as §1

FMOC28 = patient-derived low-grade serous ovarian cancer cells; conditions: 72 h; library: FO5A; assay format: 2D, 384-well, CellTiter-Glo
Summary of the method: as §1

| SMILES | drug sensitivity score (FMOC02_1) | drug sensitivity score (FMOC02_2) | drug sensitivity score (FMOC02_3) | drug sensitivity score (FMOC03) | drug sensitivity score (FMOC04) | drug sensitivity score (FMOC06) | drug sensitivity score (FMOC09) | drug sensitivity score (FMOC11) | drug sensitivity score (FMOC14) | drug sensitivity score (FMOC17) | drug sensitivity score (FMOC22) | drug sensitivity score (FMOC24) | drug sensitivity score (FMOC25_1) | drug sensitivity score (FMOC25_2) | drug sensitivity score (FMOC27) | drug sensitivity score (FMOC28) |
| --- | --- | --- | --- | --- | --- | --- | --- | --- | --- | --- | --- | --- | --- | --- | --- | --- |
| COc1cc2c(Oc3ccc(NC(=O)C4(C(=O)Nc5ccc(F)cc5)CC4)cc3F)ccnc2cc1OCCCN1CCOCC1 [Foretinib] | 2.6 | 1.9 | 3.2 | 0 | 1.1 | 3.1 | 1.1 | 0.8 | 0.6 | 1.7 | 0.5 | 1.35 | 0.6 | 2.4 | 2.2 | 0 |
| Cc1ccc(NC(=O)c2ccc(CN3CCN(C)CC3)cc2)cc1Nc1nccc(-c2cccnc2)n1 [Imatinib] | 0.3 | 1.2 | 1.6 | 0.4 | 0 | 0 | 0 | 0 | 2 | 0 | 0 | 2.75 | 0.3 | 0.1 | 0 | 0 |
| O=C(O)c1ccc(O)c2ncccc12 [IOX-1] | 0 | 0.2 | 0 | 3 | 0 | 1 | 0 | 1.6 | 1.9 | 0 | 1.6 | 0 | 0 | 0 | 0 | 0 |
| COc1ccc(CCc2nc3cc(-c4c(C)noc4C)ccc3n2C[C@H](C)N2CCOCC2)cc1Cl [SGC-CBP30] | 4.5 | 3.3 | 2 | 2.8 | 1.3 | 4.6 | 2.5 | 4.6 | 1 | 1.4 | 2.9 | 5.6 | 0.8 | 6.1 | 3.1 | 2.4 |
| N#Cc1ccc(C(c2ccc(C#N)cc2)n2cncn2)cc1 [Letrozole] | 0 | 0 | 0 | 0 | 0 | 0 | 0 | 0 | 0 | 0 | 0 | 0 | 0 | 0 | 0 | 0 |
| CC(C)Cn1cnc2c(N)nc3ccccc3c21 [Imiquimod] | 0 | 0 | 0 | 0 | 0 | 0.5 | 0 | 0 | 0 | 0 | 0 | 0 | 0 | 0 | 0 | 0.9 |
| C[C@@H]1CN(CC(=O)Nc2ccc3c(c2)Cc2cccc(-c4cc(=O)cc(N5CCOCC5)o4)c2S3)C[C@H](C)O1 | 0.5 | 0.5 | 0.2 | 0.9 | 1.9 | 0.6 | 0 | 1 | 0.3 | 0.2 | 0.8 | 5.75 | 3.4 | 1 | 0 | 0 |
| C[C@]1(O)C[C@@H](c2nc(-c3ccc4ccc(-c5ccccc5)nc4c3)c3c(N)nccn32)C1 [Linsitinib] | 1.2 | 2.7 | 6.9 | 0.1 | 2.5 | 0.8 | 0.1 | 0.1 | 0 | 0.6 | 0 | 2.1 | 3.7 | 5.8 | 0 | 4.9 |
| N[C@@H]1CCCN(c2c(/C=C3\SC(=O)NC3=O)cccc2-c2ccccc2)C1 [AZD1208] | 1 | 0 | 5.9 | 0 | 0 | 4.7 | 3.2 | 0 | 0 | 0 | 0 | 0 | 0.5 | 2.4 | 0 | 0 |
| CCN1CCN(Cc2ccc(Nc3ncc(F)c(-c4cc(F)c5nc(C)n(C(C)C)c5c4)n3)nc2)CC1 [Abemaciclib] | 7 | 6.6 | 11.6 | 2.3 | 0.35 | 4 | 2.1 | 0.8 | 0.1 | 3.4 | 0 | 1.7 | 0.1 | 7.5 | 3.2 | 0 |
| C[C@@H]1CN(Cc2ccc(F)cc2)[C@@H](C)CN1C(=O)c1cc2c(C(=O)C(=O)N(C)C)cn(C)c2cc1Cl [Talmapimod] | 0 | 0 | 0 | 0 | 0 | 0 | 0 | 0.2 | 0 | 0 | 0 | 0 | 0 | 0 | 0 | 1.2 |
| Cc1ccc(NC(=O)c2ccc(CN3CC[C@H](N(C)C)C3)c(C(F)(F)F)c2)cc1Nc1nccc(-c2cncnc2)n1 [Bafetinib] | 0.2 | 0 | 0.1 | 0 | 0 | 0 | 0 | 0 | 0 | 0 | 0 | 0 | 0 | 0 | 0 | 0.1 |
| Cc1ncc(Cl)cc1NCc1ccc(C(=O)N[C@@H](CC2CCCC2)C(=O)NC2CC2)s1 | 0 | 0 | 7.1 | 0 | 0 | 0.2 | 0 | 0 | 0 | 0 | 0.1 | 2.05 | 0 | 0 | 1.5 | 0 |
| NC[C@@](O)(c1ccc(Cl)cc1)c1ccc(-c2cn[nH]c2)cc1 | 4.1 | 0.4 | 0 | 0.3 | 0 | 1.5 | 2.6 | 2.8 | 0 | 0 | 1.1 | 4.55 | 2.8 | 0.4 | 0 | 2.8 |
| Cc1ccc(-c2cc(C(F)(F)F)nn2-c2ccc(S(N)(=O)=O)cc2)cc1 [Celecoxib] | 0 | 0 | 0 | 0 | 0 | 0 | 0 | 0 | 0 | 0 | 0 | 0 | 0 | 0 | 0 | 0.3 |
| NC(=O)NO [Hydroxyurea] | 5.2 | 1.3 | 4.8 | 0.7 | 0.8 | 1.9 | 0.9 | 2.9 | 0 | 1.1 | 0.7 | 1.05 | 0.5 | 3.9 | 1.6 | 0.9 |
| CC(C)N(C[C@H]1O[C@@H](n2cnc3c(N)ncnc32)[C@H](O)[C@@H]1O)[C@H]1C[C@@H](CCc2nc3cc(C(C)(C)C)ccc3[nH]2)C1 [Pinometostat] | 0 | 0 | 0 | 0 | 0 | 0 | 0 | 0 | 0 | 0 | 0 | 0 | 0 | 0.2 | 0 | 2.1 |
| Oc1ccc2c(c1)CC[C@H](c1ccccc1)[C@@H]2c1ccc(OCCN2CCCC2)cc1 [Lasofoxifene] | 0 | 0 | 0 | 0 | 0 | 0 | 0 | 0 | 1.1 | 0 | 0 | 0 | 0 | 0 | 0 | 0 |
| NC(=S)N/N=C/c1ncccc1N [Triapine] | 4.2 | 3.5 | 1.7 | 2.4 | 0 | 1.8 | 0.9 | 1.7 | 0 | 2.2 | 2.4 | 1.15 | 3.2 | 6 | 2.3 | 5.1 |
| Clc1ccc(Nc2nnc(Cc3ccncc3)c3ccccc23)cc1 [Vatalanib] | 0.2 | 0.9 | 0 | 0.2 | 0 | 0 | 0 | 0 | 0 | 0 | 0 | 2.8 | 0 | 0.7 | 0 | 3 |
| CC(C)(C)c1cc(NC(=O)Nc2ccc(-c3cn4c(n3)sc3cc(OCCN5CCOCC5)ccc34)cc2)no1 [Quizartinib] | 2 | 0.7 | 0.6 | 0.8 | 0.45 | 0.3 | 0 | 0 | 0 | 1 | 0 | 3.85 | 0.7 | 0.6 | 0.5 | 0.3 |
| CC(C)(C)Cn1c(N)nc2ccc(-c3[nH]c(C(C)(C)C)nc3-c3ccc(F)cc3)nc21 [Ralimetinib] | 6.6 | 4.3 | 3.4 | 2.7 | 1.05 | 3.1 | 1.9 | 6.5 | 2.2 | 4.4 | 0.4 | 1.95 | 1.1 | 3.4 | 3.2 | 1.1 |
| CC1CCC(n2c3cnccc3c3cnc(Nc4ccc5c(n4)CCN(C(=O)CO)C5)nc32)CC1 (stereo not drawn) [AMG-925] | 0 | 0 | 1.3 | 0 | 0 | 0 | 0 | 0 | 0 | 0 | 0.2 | 0 | 0.7 | 0.5 | 0.9 | 0 |

— the supplement of paper PMC9938120
